Results on four compounds are retold here after patent publication US8039510B2, “Methods of making and using theaflavin, theaflavin-3-gallate, theaflavin-3′-gallate and theaflavin 3,3′-digallate and mixtures thereof” (Nashai Biotech, LLC, priority 2001, dated 2011).

The experiment deals with Male Sprague-Dawley rats. Briefly: Lipid profile of rats fed cholesterol diet plus theaflavins or catechin for eight weeks. The conditions noted are these: for HDL / LDL / TC / TG: rat plasma, eight weeks; for reducing plasma levels of TC, LDL-C and TG, compared with catechin: rats. It is filed as in vivo, rat. On the procedure:
Male Sprague-Dawley rats weighing 100 g to 130 g were divided into nine groups of ten rats. The animals were individually housed in stainless-steel cages with screen bottoms in a room maintained at between 22° C. and 24° C. They were fed stationary feedstuff and water as follows as described in Table 1. In addition the rats in Group TF1-1, TF1-2 or TF1-3 were fed pure theaflavin in a dosage of 1 mg/kg/day, 2 mg/kg/day and 4 mg/kg/day, respectively. The animals in group TF2A-2, TF2B-2 or RF3-2 were fed pure theaflavin-3-gallate, theaflavin-3′-gallate and theaflavin-3,3′-digallate, respectively in a dosage of 2 mg/kg/day. The animals in group CA-1 and CA-2 were fed catechins in a dosage of 1 mg/kg/day or 2 mg/kg/day, respectively.
The Sprague Dawley rats were fed the above diets for eight weeks before sampling. The rats were not fed for 12 hours prior to sampling. The rats were given either theaflavin, theaflavin-3-gallate, theaflavin-3′-gallate, theaflavin-3,3′-digallate or catechin one hour in advance of collecting the blood sample.

Where [1] appears, read: group TF1-3: 4 mg/kg/day per text (Table 1 prints 3).

As for `O=c1c(O)cc([C@H]2Oc3cc(O)cc(O)c3C[C@H]2O)cc2c([C@H]3Oc4cc(O)cc(O)c4C[C@H]3O)cc(O)c(O)c12` [theaflavin], the “reducing plasma levels of TC, LDL-C and TG, compared with catechin” value is recorded as “more effective”. Further, for the setting “1 mg/kg/day”, the HDL is reported as 48.8 ± 1.7^3, the LDL is 45.6 ± 3.1^1 and the TC is 116.3 ± 8.2^1. Besides, the TG (1 mg/kg/day, mean ± spread) is 108.1 ± 13.8^2. For the same compound, where the note is “2 mg/kg/day”, the HDL is reported as 49.2 ± 2.1^3, the LDL was 34.6 ± 3.7^1, the TC is 101.3 ± 7.9^1 and the TG is 97.4 ± 11.6^1. Besides, under setting [1], the HDL was 49.4 ± 1.9^3, the LDL is 25.3 ± 2.2^1, the TC is on record as 90.8 ± 7.1^1 and the TG is on record as 87.7 ± 12.2^1.
For theaflavin-3,3′-digallate, the “reducing plasma levels of TC, LDL-C and TG, compared with catechin” value is “more effective”. Besides, where the note is “2 mg/kg/day”, the HDL is 49.3 ± 1.9^3, the LDL is recorded as 31.2 ± 4.1^1, the TC was 95.5 ± 7.4^1 and the TG was 95.36 ± 9.2^1.
Taken in the same sequence, the figures for `O=C(O[C@@H]1Cc2c(O)cc(O)cc2O[C@@H]1c1cc(=O)c(O)c2c(O)c(O)cc([C@H]3Oc4cc(O)cc(O)c4C[C@H]3O)c2c1)c1cc(O)c(O)c(O)c1` [theaflavin-3-gallate] were “more effective”, 49.2 ± 1.9^3, 32.2 ± 3.7^1, 97.3 ± 8.4^1 and 95.7 ± 10.5^1.
Taken in the same sequence, the figures for theaflavin-3′-gallate were “more effective”, 49.3 ± 2.7^3, 32.4 ± 3.3^1, 97.8 ± 8.5^1 and 96.2 ± 10.2^1.
